Data published in US12241102B2, “Method for synthesizing betalain pigment” (priority 2018, dated 2025).

What was measured:
[1] = tested on: Human breast cancer cells (MCF-7); assay: Influence of betalain pigment on human breast cancer cells (AlamarBlue assay); assay type: cell-based; settings: MCF-7 cells, concentration of 50 μM, cultured for 72 hours, p<0.05 vs untreated cells
Protocol: FIG. 14 show the results of evaluation of cell proliferation in MCF-7 cells. FIG. […] Cell proliferation was determined using an AlamarBlue assay according to the manufacturer's instructions. Bars represent the mean±SE (n=5). Symbol “*” represents p<0.05 as compared to untreated cells. […] Cells were examined under an inverted microscope. Bars represent 100 μm.
Human breast cancer cells (MCF-7) were received from the RIKEN BioResource Center. For the culture of the cells, Dulbecco's modified Eagle's medium-high glucose (4.5 g L^−1 glucose; DMEM-HG) supplemented with 10% FBS and antibiotics (100 U mL^−1 penicillin and 100 μg mL^−1 streptomycin) was used. The cells were cultured under the culture conditions of 37° C., a humidity of 100%, and a 5% CO2/95% air atmosphere. For the culture, the breast cancer cells were added at 5,000 cells per well on 96-well plates, and at the same time, amaranthin or betanin was added at different concentrations, and the cells were cultured for 72 hours. After that, the activity of the breast cancer cells was evaluated by an AlamarBlue assay (alamarBlue Cell Viability Reagent, Thermo Fisher Scientific). The procedure followed the accompanying instructions.

HIV-1 protease [2] = target: T1, HIV-1 protease (Human immunodeficiency virus type 1 group M subtype B, UniProt P04585); assay: Evaluation of HIV-1 protease inhibitory activity (residual substrate peptide by HPLC); assay type: biochemical; design: A recombinant HIV-1 protease (ab84117) from Abcam was used as an HIV-1 protease; purchased Abcam ab84117; settings: 25° C., 2 hours, pH 4.7
Description: FIG. 15 show the results of evaluation of inhibition of an HIV-1 protease. FIG. 15A includes HPLC chromatograms of HIV-1 protease reaction mixtures. Dashed and solid arrows indicate an HIV-1 protease substrate and its degradation product, respectively. (+) and (−)HIV-1 protease indicate reaction mixtures with and without the HIV-1 protease, respectively. (−)Betalain indicates a reaction mixture without betalain pigments. The horizontal axis indicates the retention time (min), and the vertical axis indicates the signal intensity (μV). […] Gray and black bars indicate reaction mixtures containing betanin and amaranthin, respectively. The white bar indicates the reaction mixture without betalain pigments as a negative control. Bars represent the mean±SE (n=3). Symbol “*” represents p<0.05 as compared to the reaction mixture without betalain pigments. 0, 10, 50, and 100 indicate 0-, 10-, 50-, and 100-fold amounts of betalain as compared to the HIV-1 protease. […]
After the reaction, the reaction liquid was measured for the amount of the residual substrate peptide through use of HPLC, and a residual ratio with respect to the substrate before the reaction was calculated. […] Analysis was performed with an analytical wavelength being set to 260 nm allowing the HIV-1 protease substrate peptide to be detected.

HIV-1 protease [3] = target: T1, HIV-1 protease; settings: literature virtual screening, not tested experimentally there; cited from earlier work

## O=C(O)C1=C/C(=C/C=[N+]2/c3cc(O)c(OC4OC(CO)[C@@H](O)C(O)C4O)cc3CC2C(=O)[O-])CC(C(=O)O)N1 (stereo in doubt) [betanin, reference compound]
[1]
  cancer cell activity of the breast cancer cells: significantly suppressed
HIV-1 protease [2]; 10-, 50- and 100-fold amounts with respect to the HIV-1 protease
  inhibitory activity on the HIV-1 protease: not found to have inhibitory activity

## O=C(O)C1=C/C(=C/C=[N+]2c3cc(O)c(O[C@@H]4O[C@H](CO)[C@@H](O)[C@H](O)[C@H]4O[C@@H]4O[C@H](C(=O)O)[C@@H](O)[C@H](O)[C@H]4O)cc3C[C@H]2C(=O)[O-])C[C@@H](C(=O)O)N1 [amaranthin]
HIV-1 protease [3]
  virtual screening prediction as HIV-1 protease inhibitor: candidate of a novel HIV-1 protease inhibitor
[1]
  cancer cell activity of the breast cancer cells: significantly suppressed
HIV-1 protease [2]; 100-fold amount with respect to the HIV-1 protease (16 pmol)
  activity of the HIV-1 protease: significantly inhibited
